Test results published in paper PMC11915509, “Small molecule inhibitors of hnRNPA2B1–RNA interactions reveal a predictable sorting of RNA subsets into extracellular vesicles” (Nucleic Acids Research, 2025).

Assays:
[1] = system: hnRNPA2B1 protein association with purine-rich RNA probe; assay: RNA pull-down with biotinylated EXOmotif probe after cell treatment, immunoblotting; type: cell-based, mouse; settings: NSC34 cells, 6 h, 5 μM compound
Procedure: To prepare native protein lysates, 1–3 × 10^6 NSC34 cells were lysed in buffer R-Lysis [25 mM HEPES, pH 7.5, 100 mM NaCl, 1× protease inhibitor (Thermo Fisher, 78429)] and subjected to a water-bath sonication (35–40 amplitude, 6–7 cycles of 7 s on and 45 s off). After a centrifugation at 14 000 rpm for 20 min at 4°C, the supernatant was collected and 200 μg were incubated with 5 μl of buffer equilibrated Dynabeads^TM M-280 Streptavidin (Invitrogen, 11205D) for 15 min at 4°C in rotation to perform a pre-clearing step. After the magnetic separation, the pre-cleared lysate was incubated with 10 μl of 100 μM RNA biotinylated probes (or 400 ng of biotinylated EV-RNA) and incubated for 1 h at 4°C in rotation. Then, 5 μl/sample of beads were added and the sample were put again in rotation for 20 min at 4°C. […]
Cells were lysed in lysis buffer [50 mM Tris–HCl, pH 7.4, 150 mM NaCl, 1 mM EDTA, 0.25% NP-40, 0.1% Triton X-100, 0.1% sodium dodecyl sulphate, 1× protease inhibitor (Thermo Fisher, 78429)]. […] The signal was measured with Amersham ECL HRP-Conjugated Antibodies (Cytiva) using BioRad Chemidoc XRS+.

[2] = system: EV miR-221 from NSC34 cells; assay: ddPCR of miR-221-3p in NSC34-derived EV-RNA; type: cell-based, mouse; settings: NSC34-derived EVs, 6 h treatment
Procedure: EVs were isolated from HEK293T, NSC34, and smNPC-derived motor neurons using nickel-based isolation (NBI) or differential ultracentrifugation (UC). NBI protocol was performed as already described. Briefly, after a first centrifugation step at 2800 × g for 10 min, nickel beads were incubated for 30 min with serum-free media collected from cells in a ratio of 25 μl of beads per ml of medium. After a 2 min centrifugation at 600 g, particles were eluted from the beads by adding 1× elution buffer made of Solution A [16 mM ethylenediaminetetraacetic acid (EDTA), UltraPure, pH 8.0, Thermo Fisher] and Solution B (10 mM NaCl, 225 μM citric acid, Sigma–Aldrich) diluted five times in phosphate-buffered saline (PBS). After 15 min incubation at 28°C in a thermoshaker, the EVs were retrieved by 1-min centrifugation at 1800 × g and subjected to the following characterization. NBI was used to recover polydisperse EVs and include the RNA contribution from these for reverse proteomics experiments. The EV-RNA for reverse proteomics was pooled from three consecutive EV isolation procedures performed on a total of 30 T75 flasks (10 flasks each) of NSC34 cells grown until 80% confluence under standard conditions before washing with PBS and incubating with serum-free medium with glutamine and antibiotics. Differential UC was applied as an alternative EV isolation protocol to confirm the detection of hnRNPA2B1 protein. UC was performed by a SW 32 Ti swinging bucket rotor in an Optima XPN-100 ultracentrifuge (Beckman Coulter, Brea, CA, USA). The cell-conditioned serum-free media, after the first centrifugation step at 2800 × g for 10 min, was put in open-top Ultra-Clear centrifuge tubes (Beckman Coulter-344058) and subjected to 100 000 × g (100 K) UC for 70 min at 4°C under vacuum, with or without an additional step at 10 000 × g (10 K) to first sediment larger particles. Then the supernatant was removed, and the pellet was resuspended in 0.22 μm filtered PBS. Differential UC alone, consisting of 2800 × g for 10 min and 100 000 × g for 70 min, was applied for experiments reported in Fig. 5. […]
RNA from cells was extracted using TRI Reagent® (T9424, Sigma) following the manufacturer’s instructions. Thermo Fisher Nanodrop 2000 Spectrophotometer was used to assess the purity and quantity of extracted RNA. […] The elution was in 10–20 μl of RNase-free water and the RNA profiling and quantification was assessed by Agilent 2100 Bioanalyzer and RNA 6000 Pico Kit (5067-1513). Cell- and EV-RNAs were also analysed with DNF-472 HS RNA (15 nt) Kit (Agilent Technologies, Santa Clara, CA), according to the manufacturer. […] Results were analysed with Agilent ProSize data analysis software, that allows the analysis of RNA size, concentration and quality. […]

O=C1C=C2CC3(O)COc4c(ccc(O)c4O)C3=C2C=C1O (centres unmarked) [H, hematein]
association of hnRNPA2B1 protein with exogenous purine-rich RNA probe [1]: most effective | vesicular miR-221, copy number normalized on Y3 RNA and DMSO [2]: vesicular depletion
